Test results from article PMC8214221, “Sequence determinants in the cathelicidin LL-37 that promote inflammation via presentation of RNA to scavenger receptors” (The Journal of Biological Chemistry, 2021).
Residues, ends and D or L forms follow the SMILES beside them.

Target: T1, scavenger receptor SRB1 (Homo sapiens, UniProt Q8WTV0)
T1 construct: host or cells: NHEK (normal human epidermal keratinocytes)
T1 sequence (Q8WTV0 1-552): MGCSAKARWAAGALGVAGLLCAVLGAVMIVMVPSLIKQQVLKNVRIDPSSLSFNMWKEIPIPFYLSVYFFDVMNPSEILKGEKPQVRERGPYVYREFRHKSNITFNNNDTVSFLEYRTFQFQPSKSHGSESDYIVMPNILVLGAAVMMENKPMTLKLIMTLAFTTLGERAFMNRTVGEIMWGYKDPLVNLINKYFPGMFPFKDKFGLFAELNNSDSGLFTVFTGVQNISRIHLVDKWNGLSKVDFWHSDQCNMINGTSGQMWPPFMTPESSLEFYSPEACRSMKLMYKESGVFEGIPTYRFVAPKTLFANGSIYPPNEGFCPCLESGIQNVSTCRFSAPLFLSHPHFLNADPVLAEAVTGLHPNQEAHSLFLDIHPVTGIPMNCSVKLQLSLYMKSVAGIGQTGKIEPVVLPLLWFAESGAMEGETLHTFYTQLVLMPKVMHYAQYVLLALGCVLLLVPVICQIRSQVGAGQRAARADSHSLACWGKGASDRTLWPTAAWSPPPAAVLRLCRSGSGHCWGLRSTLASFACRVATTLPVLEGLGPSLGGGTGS
Experiment: Proximity ligation assay (PLA) on NHEKs
Type: cell-based
Details: peptide 2 μM 15 min, then biotinylated U1 dsRNA 2 μg/ml 60 min at 4 °C, spatial correlation <40 nm, n = 3
Description: Figure 4 LL-34 enables U1 dsRNA association with scavenger receptor (SR) SRB1.A and B, NHEKs with gene knockdown for SRs SCARB1, SCARB1, SCARA3, CD36, LRP1, CD163L1, CXCL16, MSR1, MARCO, and OLR1 were cotreated with U1 dsRNA (2.5 μg/ml) and LL-34 (2 μM) for 18 h. Gene expression of IFNB1 and CXCL10 was assessed with quantitative RT-PCR (n = 3). C, proximity ligation assay (PLA) for U1 dsRNA and SR SRB1 binding. NHEKs were treated with LL-34-parent, LL-34-I24A, and LL-34-L31A (2 μM) for 15 min, followed by treatment with biotinylated U1 dsRNA (2 μg/ml) for 60 min at 4 °C. The physical proximity of LL-34 and SRB1 (C), and U1 dsRNA, and SRB1 (D) was determined with fluorescence-based PLA that produces a red fluorescent signal. DAPI (blue) was used as a nuclear counterstain. The scale bar represents 50 μm. Signal counts of C and D from five visual fields were used for PLA signal quantification, as shown in E and F (n = 3). (∗p < 0.05; ∗∗p < 0.01; ∗∗∗p < 0.001; ∗∗∗∗p < 0.0001). […]
The binding of peptide to SRB1 or U1 to SRB1 was assessed by proximity ligation assay (PLA) (Fig. 4, C–E).
PLA was performed as described previously ([30]). […] PLA signals were captured on Olympus BX41 microscope (widefield) with 40× objective and counted by Duolink ImageTool software, version 1.0 (Sigma–Aldrich). Five fields were captured per treatment for quantification of PLA signals with ImageTool software. […]

Structure (SMILES)	Localization of peptide with SRB1 (PLA)
CC[C@H](C)[C@H](NC(=O)[C@H](CCCCN)NC(=O)[C@H](CCC(=O)O)NC(=O)[C@H](CCCCN)NC(=O)[C@H](CO)NC(=O)[C@H](CCCCN)NC(=O)[C@H](CCCNC(=N)N)NC(=O)[C@H](Cc1ccccc1)NC(=O)[C@H](Cc1ccccc1)NC(=O)[C@H](CC(=O)O)NC(=O)CNC(=O)[C@H](CC(C)C)NC(=O)[C@@H](N)CC(C)C)C(=O)NCC(=O)N[C@@H](CCCCN)C(=O)N[C@@H](CCC(=O)O)C(=O)N[C@@H](Cc1ccccc1)C(=O)N[C@@H](CCCCN)C(=O)N[C@@H](CCCNC(=N)N)C(=O)N[C@H](C(=O)N[C@H](C(=O)N[C@@H](CCC(N)=O)C(=O)N[C@@H](CCCNC(=N)N)C(=O)N[C@@H](C)C(=O)N[C@@H](CCCCN)C(=O)N[C@@H](CC(=O)O)C(=O)N[C@@H](Cc1ccccc1)C(=O)N[C@@H](CC(C)C)C(=O)N[C@@H](CCCNC(=N)N)C(=O)N[C@@H](CC(N)=O)C(=O)N[C@@H](CC(C)C)C(=O)N[C@H](C(=O)N1CCC[C@H]1C(=O)N[C@@H](CCCNC(=N)N)C(=O)O)C(C)C)C(C)C)[C@@H](C)CC [LL-34—I24A] (H-LLGDFFRKSKEKIGKEFKRIVQRAKDFLRNLVPR-OH)	did not achieve close localization
CC[C@H](C)[C@H](NC(=O)[C@H](CCCCN)NC(=O)[C@H](CCC(=O)O)NC(=O)[C@H](CCCCN)NC(=O)[C@H](CO)NC(=O)[C@H](CCCCN)NC(=O)[C@H](CCCNC(=N)N)NC(=O)[C@H](Cc1ccccc1)NC(=O)[C@H](Cc1ccccc1)NC(=O)[C@H](CC(=O)O)NC(=O)CNC(=O)[C@H](CC(C)C)NC(=O)[C@@H](N)CC(C)C)C(=O)NCC(=O)N[C@@H](CCCCN)C(=O)N[C@@H](CCC(=O)O)C(=O)N[C@@H](Cc1ccccc1)C(=O)N[C@@H](CCCCN)C(=O)N[C@@H](CCCNC(=N)N)C(=O)N[C@H](C(=O)N[C@H](C(=O)N[C@@H](CCC(N)=O)C(=O)N[C@@H](CCCNC(=N)N)C(=O)N[C@H](C(=O)N[C@@H](CCCCN)C(=O)N[C@@H](CC(=O)O)C(=O)N[C@@H](Cc1ccccc1)C(=O)N[C@@H](CC(C)C)C(=O)N[C@@H](CCCNC(=N)N)C(=O)N[C@@H](CC(N)=O)C(=O)N[C@@H](C)C(=O)N[C@H](C(=O)N1CCC[C@H]1C(=O)N[C@@H](CCCNC(=N)N)C(=O)O)C(C)C)[C@@H](C)CC)C(C)C)[C@@H](C)CC [LL-34—L31A] (H-LLGDFFRKSKEKIGKEFKRIVQRIKDFLRNAVPR-OH)	did not achieve close localization
